Values of other authors as cited in paper PMC8091910 (Proteins, 2019).

Experiments:
[1] = test system: pancreatic cancer cell (RWP1); conditions: human peptide library screen

binding to EME1 (EME1): binds to EME1
Sequence: RTLSQLYCSYGPLT [C-terminal MUS81 peptide]
disruption / inhibition of MUS81–EME1 complex (MUS81–EME1 complex): disrupting the MUS81–EME1 complex | reduction of cell viability in cancer cell lines (cancer cell lines): reducing cell viability in cancer cell lines | reduction of cell viability [1]: significantly reduced cell viability
